Experimental data from US20230219956A1 (BETTA PHARMACEUTICALS CO.,LTD, priority 2019, published 2023).

Tests used:
[1] = test system: MIA-PACA-2 cells; experiment: Cell proliferation assay, MIA-PACA-2 cells (Cell-titer Glo); format: cell-based; details: Homo sapiens, 96 h incubation
Procedure, shortened: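 MIA-PACA-2 cells, 600 per well in ultra-low-attachment plates, exposed 96 h at 37 °C to compound at 0.025–10000 nM final (0.25% DMSO). Viability by CellTiter-Glo luminescence; inhibition normalised to DMSO and cell-free controls, IC50 from curve fit.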

[2] = test system: H358 cells; experiment: Cell proliferation assay, H358 cells (Cell-titer Glo); format: cell-based; details: Homo sapiens, NCI-H358, 96 h incubation
Procedure, shortened: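 H358 cells, 2000 per well in ultra-low-attachment plates, treated after overnight culture with compound at 10000 to 1.5 nM plus 0 (0.25% DMSO final) for 96 h at 37 °C, 5% CO2. Cell-titer Glo luminescence, normalised to DMSO and cell-free controls; IC50 from curve fit.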

[3] = Permeability assay, Caco-2 monolayer cell model; format: in vitro ADME; details: human, Caco-2, compound 5 μM, Verapamil 0 μM; for efflux ratio at 120 min, 5 μM: read-out: RE (Efflux Ratio)
Experimental: The Caco-2 monolayer cell model was used to determine the bidirectional permeability and efflux rate of the example compounds and the comparative compounds. In the experiment, 50 μL of 6.86×10^5 cells/mL Caco-2 cells (passage 45) were seeded into 96-well cell culture plates, and cultured continuously for 14-18 days for transport experiments. The corresponding compound was administered bidirectionally with or without verapamil (P glycoprotein (P-gp) inhibitor), at a concentration of 5 μM. At 37° C., after incubating with shaking at 150 rpm for 120 minutes, the top and basal samples were collected, and the content of each compound in the samples was determined by liquid chromatography tandem mass spectrometry (LC/MS/MS).
Refer to the Table 4 for permeability data of some compounds in the examples.

[4] = test system: CALU-1 cells; experiment: Cell proliferation assay, CALU-1 cells (Cell-titer Glo); format: cell-based; details: Homo sapiens, 120 h incubation
Experimental: The CALU-1 cells were spread on a 96-well ultra-low adsorption plate with 1000 cells and 190 μL/well. After incubating overnight, compound solutions of gradient concentration was prepared, and added 10 μL of DMSO solution of the test compound of each concentration to the cells of each well. The final concentration of the compound is 30000, 10000, 3333.3, 1111.1, 370.4, 123.5, 41.2, 13.7, 4.6, 0 nM (the final concentration of DMSO is 0.25%). Incubated for 120 h at 37° C. and 5% CO2. 60 μL of Cell-titer Glo working solution was added to each well, shaked and mixed, and incubated at room temperature for 10 minutes. The multi-functional microplate reader read the luminescence value, and converted the luminescence value reading into inhibition percentage.
Inhibition percentage=(maximum value−reading)/(maximum value−minimum value)*100.
The “maximum value” was the DMSO control, the “minimum value” indicates the cell-free control group.
Graphpad Prism software was used to perform curve fitting and obtain IC50 value.
The compounds of the examples have good inhibition on CALU-1 cells, and their activity is better than that of ARS-1620. Refer to Table 2 for the IC50 data of some compounds in the examples inhibiting CALU-1 cells.

IC50 [1] | IC50 [2] | Papp A→B at 120 min, 5 μM [3] | Papp B→A at 120 min, 5 μM [3] | efflux ratio at 120 min, 5 μM [3] | IC50 [4] | SMILES
2.6 nM | 4.4 nM | 0.34 ×10⁻⁶ cm/s | 10.3 ×10⁻⁶ cm/s | 30.6 | – | C=CC(=O)N1CC2(CCN(c3nc(C4CCN(C5CCOCC5)CC4)nc4c(OCC(F)(F)F)c(-c5c(C)ccc6[nH]ncc56)c(C=C)cc34)CC2)C1 [Example 58, 1-(7-(7-(5-methyl-1H-indazole-4-yl)-2-(1-(tetrahydro-2H-pyran-4-yl)piperidin-4-yl)-8-(2,2,2-trifluoroethoxy)-6-vinylquinazolin-4-yl)-2,7-diazspiro [3.5]nonan-2-yl) propyl-2-en-1-one]
284 nM | – | – | – | – | 245 nM | C=CC(=O)N1CCN(c2ncnc3c(F)c(-c4c(O)cccc4F)c(Cl)cc23)CC1 [ARS-1620, reference compound]
– | – | – | – | – | 4.6 nM | C=CC(=O)N1CC2(CCN(c3nc(C4CCN(C)C4)nc4c(OCC(F)(F)F)c(-c5c(C)ccc6[nH]ncc56)c(C=C)cc34)CC2)C1 (centres unmarked) [Compound 8]
– | – | – | – | – | 45.7 nM | C=CC(=O)N1CC2(CCN(c3nc(C4CCOCC4)nc4c(OCC(F)(F)F)c(-c5c(C)ccc6[nH]ncc56)c(C=C)cc34)CC2)C1 [Compound 6, 1-(7-(7-(5-methyl-1H-indazol-4-yl)-2-(tetrahydro-2H-pyran-4-yl)-8-(2,2,2-trifluoroethoxy)-6-vinylquinazolin-4-yl)-2,7-diazaspiro[3.5]nonan-2-yl)prop-2-en-1-one]
– | – | 0.51 ×10⁻⁶ cm/s | 7.18 ×10⁻⁶ cm/s | 14.2 | 2.7 nM | C=CC(=O)N1CC2(CCN(c3nc(C4CCN(C)CC4)nc4c(OCC(F)(F)F)c(-c5c(C)ccc6[nH]ncc56)c(C=C)cc34)CC2)C1 [Compound 1, 1-(7-(7-(5-methyl-1H-indazol-4-yl)-2-(1 methylpiperidin-4-yl)-8-(2,2,2-trifluoroethoxy)-6-vinylquinazolin-4-yl)-2,7-diazaspiro[3.5]nonan-2-yl)prop-2-en-1-one]
– | – | – | – | – | 103 nM | C=CC(=O)N1CC2(CCN(c3nc(C4CCN(C)CC4)nc4c(F)c(-c5c(C)ccc6[nH]ncc56)c(C=C)cc34)CC2)C1 [Compound 5, 1-(7-(8-fluoro-7-(5-methyl-1H-indazol-4-yl)-2-(1-methylpiperidin-4-yl)-synthesis of 6-vinylquinazolin-4-yl)-2,7-diazaspiro[3.5]nonan-2-yl)prop-2-en-1-one]
– | – | 0.21 ×10⁻⁶ cm/s | 9.64 ×10⁻⁶ cm/s | 46.5 | 2.9 nM | C=CC(=O)N1CC2(CCN(c3nc(C4CCN(C)CC4)nc4c(OCC(F)(F)F)c(-c5c(C)ccc6[nH]ncc56)c(CC)cc34)CC2)C1 [Compound 4, 1-(7-(6-ethyl-7-(5-methyl-1H-indazol-4-yl)-2-(1-methylpiperidin-4-yl)-8-(2,2,2-trifluoroethoxy)quinazolin-4-yl)-2,7-diazaspiro[3.5]nonan-2-yl)prop-2-en-1-one]
40.6 nM | 6.4 nM | 1.33 ×10⁻⁶ cm/s | 5.82 ×10⁻⁶ cm/s | 4.36 | – | C=CC(=O)N1CC2(CCN(c3nc(C4CCN(C(C)=O)CC4)nc4c(OCC(F)(F)F)c(-c5c(C)ccc6[nH]ncc56)c(C=C)cc34)CC2)C1 [Example 14, 1-(7-(2-(1-acetylpiperidin-4-yl)-7-(5-methyl-1H-indazol-4-yl)-8-(2,2,2-trifluoroethoxy)-6-vinylquinazolin-4-yl)-2,7-diazaspiro[3.5]nonan-2-yl)prop-2-en-1-one]
